These results are taken from PubChem BioAssay (NCI).

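Results reflect a 48-hour exposure of cells in 96-well plates to compound at five concentrations. The concentration for 50% growth inhibition is given as GI50. TGI is the concentration that stops growth completely.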 Bounds are passed on as bounds.

What all share (assay): inhibition of tumour cell growth, NCI panel, 48 h
The subject of experiment [1] is CCRF-CEM leukemia.
In experiment [2] the test system is EKVX NSCLC.
The test system of experiment [3] is MALME-3M melanoma.
The test system of experiment [4] is NCI-H522 lung.
Experiment [5] has as its system OVCAR-3 ovarian.
Experiment [6] relates to SK-MEL-28 melanoma.
Experiment [7] deals with DU-145 prostate.
In experiment [8] the test system is MDA-N.
Experiment [9] concerns PC-3 prostate.
For experiment [10], the system named is HS 578T breast.

On to `Cc1cc([NH-])c([NH-])cc1C.[Cl][Pt+2][Cl]`, for which the GI50 in experiment [1] was 1.95 µM; in experiment [2], 19.7 µM; in experiment [3], 18 µM; in [4] it was 7.39 µM; in experiment [5], 17.9 µM; in [6] it was 16.7 µM. Further, the TGI in experiment [1] was found to be 61.5 µM; in experiment [2] it was 46.7 µM; in experiment [3], 36.6 µM; in experiment [4], 24.5 µM; in experiment [5] it was 33.6 µM; in experiment [6] it was 39.5 µM.

Consider `CCOC(=O)c1c(C)n(Cc2ccc(Cl)cc2Cl)c2c1cc(O)c1[nH]c3c(c12)CCCC3`, for which the TGI in [1] is 77.1 µM; in [7], > 100 µM; in experiment [2], > 100 µM; in [3], 43.2 µM; in experiment [8], 45.6 µM; in experiment [4], 38.8 µM. Further, the values for the TGI in [5], in experiment [9] and in experiment [6] were > 100 µM, 40.9 µM and 45 µM, respectively.

For `COc1ccc(N2CC(=O)N(C(=O)COc3ccc(OCC(=O)N4C(=O)CN(c5ccc(OC)cc5)C4=S)cc3)C2=S)cc1`, the TGI in [7], in experiment [2], in experiment [3], in [8], in experiment [4] and in [9] was > 100 µM each time. In [6], the TGI is > 100 µM.

For `O=C1C=CC(=O)c2c1ccc1c3ccccc3n(Cc3ccc([N+](=O)[O-])cc3)c21`, the TGI is 40.8 µM in experiment [1]; > 100 µM in experiment [7]; > 100 µM in [2]; > 100 µM in experiment [8]; 55.4 µM in experiment [4]; > 100 µM in experiment [5]. In addition, the TGI in [9] and in experiment [6] was > 100 µM throughout.

`CCNCCNC(=O)c1ccc(I)cc1`: the TGI in experiment [1], in [2], in experiment [10], in [5], in experiment [9] and in [6] was > 100 µM in each case.

`CCN(CCCOc1ccccc1)CCN(CC)CCCOc1ccccc1`: the TGI in experiment [1] is > 100 µM; in experiment [7] it was 23.9 µM; in experiment [2], 28.9 µM; in [10] it was 30.4 µM; in experiment [3], 32 µM; in experiment [4], 28.9 µM. Also, the TGI was 31.9 µM in experiment [5], 5.14 µM in experiment [9] and 36.7 µM in experiment [6].

Turning to `Cc1ccc(C)c(NC(=O)C(=O)C(C(=O)c2ccc3ccccc3c2)C2OC(=O)c3ccccc32)c1` (centres undefined), the TGI in [1] was 64.9 µM; in [2], 51.1 µM; in experiment [4], 22.5 µM; in experiment [6] it was 34.4 µM.

For the compound `O=C1[C@H](O)[C@@H]2C(O)O[C@H]3[C@@H]2N1C[C@H]3[Si](c1ccccc1)(c1ccccc1)c1ccccc1` (some centres undefined), the TGI in [7], in [2], in experiment [5], in experiment [9] and in experiment [6] was > 100 µM throughout.

With `COC1=NCc2ccccc2-c2ccccc21`, the TGI in experiment [1], in [3], in experiment [4], in experiment [5] and in [6] was > 100 µM throughout.

Turning to `O=S1(=O)c2ccccc2Oc2ccc(C(/C=N/O)=N/O)cc21`, the TGI in experiment [1] was 72.1 µM; in experiment [7], 53 µM; in [2], 57.7 µM; in [3], 25.7 µM; in experiment [4] it was 26.7 µM; in experiment [5], 36.6 µM. Besides, the TGI in [9] and in [6] was > 100 µM throughout.

Take `CC(=O)O[C@H]1CC(C)(C)C(=C=C/C(C)=C/C=C/C=C/C=C(C)/C=C2C=C(/C=C/[C@@]34O[C@]3(C)C[C@@H](O)CC4(C)C)C(=O)O/2)[C@](C)(O)C1`: the TGI in [1] was 10 µM; in [7], > 100 µM; in experiment [3] it was 41.9 µM; in experiment [8], 49.5 µM; in experiment [5] it was 23.2 µM; in experiment [9] it was 15.9 µM. Moreover, the TGI in experiment [6] was > 100 µM.

As to `O=c1[nH]cc(NCCCl)c(=O)[nH]1`, the TGI in experiment [1], in experiment [7], in experiment [2], in [3], in experiment [8] and in experiment [4] was > 100 µM in each case. In addition, the TGI in [5], in [9] and in [6] was > 100 µM in each case.

Turning to `CCOC(=O)C(C#N)(Cc1c[nH]c2ccccc12)NC(C)=O` (centres undefined), the TGI in experiment [1], in [2], in experiment [3], in experiment [4], in experiment [5] and in experiment [6] was > 100 µM throughout.

Regarding `Cc1cc(C)nc(NS(=O)(=O)c2ccc(NC(=O)c3c4ccccc4nc4ccccc34)cc2)n1`, the TGI in experiment [1], in experiment [7], in experiment [2], in experiment [3], in [8] and in experiment [4] was > 100 µM in each case. Also, the TGI in [5], in experiment [9] and in experiment [6] was > 100 µM throughout.

Take `COc1cc(/C=C2\C(=O)N(c3cccc([N+](=O)[O-])c3)C(c3ccccc3)S2(=O)=O)cc(OC)c1OC` (centres undefined): the TGI in [1], in [7], in [2], in experiment [3], in experiment [8] and in experiment [4] was > 100 µM in each case. Further, the TGI in experiment [5], in experiment [9] and in experiment [6] was > 100 µM throughout.

Consider `C=CCC1(C#N)C(=S)NC2=C(C(=O)CC(C)(C)C2)C1c1ccccc1` (centres undefined), for which the TGI in [1] was > 100 µM; in [7], 40.5 µM; in experiment [2] it was 60.5 µM; in [8], > 100 µM; in experiment [9], > 100 µM; in experiment [6], > 100 µM.

As for `c1ccc(-c2csc3c4ccccc4c4ccccc4[n+]23)cc1`, the TGI in experiment [1] is > 38.5 µM; in [2] it was 31.8 µM; in experiment [3], 3.21 µM; in [4], 7.12 µM; in experiment [5], 5.29 µM; in [6], 7.96 µM.

For `CC(C)(C)c1ccc(OCCOc2ccc(C(C)(C)C)cc2N)c(N)c1`, the TGI in [1], in [7], in experiment [2], in experiment [10], in experiment [3] and in [4] was > 100 µM each time. The TGI in experiment [5], in experiment [9] and in experiment [6] was > 100 µM each time.

Regarding `COC(=O)[C@H]1C=NN[C@@H]1C(=O)N1[C@H]2CC3CC[C@@]2(CS1(=O)=O)C3(C)C`, the TGI in experiment [1], in experiment [7], in experiment [2], in experiment [10], in experiment [3] and in experiment [4] was > 100 µM each time. Besides, the TGI in experiment [9] and in experiment [6] was > 100 µM throughout.

Turning to `C[C@@]1(O)C2CC3CC1(c1ccccc1)CC(/C3=N/O)/C2=N\O` (some centres undefined), the TGI in experiment [1], in [7], in experiment [2], in experiment [3], in experiment [4] and in experiment [5] was > 100 µM each time. Besides, the TGI in [9] and in experiment [6] was > 100 µM each time.

On to `Cc1c(/C=N/NC(=O)c2ccccc2O)c(=O)n(-c2ccccc2)n1C`, for which the TGI in [1], in experiment [2], in experiment [3], in [4], in experiment [5] and in experiment [6] was > 100 µM throughout.

As to `COc1ccc2c(c1)C(=O)CC1c3cnccc3C(=O)N21` (centres undefined), the TGI in experiment [7], in experiment [2], in [3], in [8], in experiment [4] and in experiment [5] was > 100 µM in each case. Besides, the TGI in experiment [9] and in [6] was > 100 µM each time.

On to `CC(C)=CCN1c2ccccc2NC(=O)CC1C` (centres undefined), for which the TGI in experiment [1], in experiment [7], in experiment [2], in [10], in experiment [3] and in experiment [4] was > 100 µM in each case. Besides, the TGI in experiment [5], in experiment [9] and in experiment [6] was > 100 µM in each case.

In the case of `CCCCCOc1ccc(C=Nc2ccc(CCc3ccc(N=Cc4ccc(OCCCCC)cc4)cc3)cc2)cc1`, the TGI in [1], in experiment [2], in experiment [3], in [4], in experiment [5] and in [6] was > 100 µM each time.

In the case of `CCn1nc(C)c2c1C(=O)NCC(=O)N2`, the TGI in experiment [7], in experiment [2], in experiment [10], in experiment [8], in experiment [4] and in experiment [5] was > 100 µM each time. Further, the TGI in experiment [9] and in experiment [6] was > 100 µM throughout.

As for `CNC(C)(C)Cc1ccc(Cl)cc1`, the TGI in [1], in experiment [2], in experiment [3], in experiment [4], in experiment [5] and in experiment [6] was > 100 µM in each case.

Turning to `CCCCN(CCCC)Cc1cc(Nc2ccnc3cc(Cl)ccc23)ccc1O`, the GI50 is 17.5 µM in experiment [1]; > 100 µM in experiment [7]; 24.5 µM in [3]; 3.75 µM in [4]; 74.7 µM in experiment [5]; 5.73 µM in [9]. In experiment [6], the GI50 is 43.1 µM. Besides, the TGI in [1], in [7], in experiment [3], in experiment [4], in experiment [5] and in experiment [9] was > 100 µM throughout. In addition, the TGI in experiment [6] is > 100 µM.

As to `O=C(/C=C(/C=C/c1ccc2[nH]ccc2c1)OB(F)F)/C=C/c1ccc2[nH]ccc2c1`, the GI50 was 0.423 µM in experiment [1]; 1.64 µM in experiment [7]; 3.17 µM in experiment [2]; 3.96 µM in experiment [10]; 2.62 µM in experiment [3]; 1.49 µM in [9]. In addition, the TGI in experiment [1] was > 100 µM; in experiment [7], 4.2 µM; in experiment [2] it was 86.9 µM; in experiment [10], > 100 µM; in [3], > 100 µM; in experiment [9], > 100 µM.

As for `Nc1n(CC(=O)c2ccccc2)nc2sc(-c3ccccc3)n[n+]12`, the TGI in experiment [1] is > 100 µM; in experiment [7] it was 87.7 µM; in experiment [2], > 100 µM; in experiment [10], > 100 µM; in [4], 34.4 µM; in [5] it was 38.9 µM. For the same compound, the TGI in experiment [9] is 78.8 µM; in [6], > 100 µM.

In the case of `CN1CCC(CNc2cc(C3(C(=O)Nc4cc(C(=O)Nc5ccc(Cl)c(C(F)(F)F)c5)ccc4F)CC3)ncn2)CC1`, the GI50 in [7] is 3.99 µM; in experiment [2], 2.46 µM; in [10], 1.99 µM; in experiment [4], 2.01 µM; in experiment [5], 2.57 µM; in experiment [9] it was 1.04 µM. In addition, the TGI in experiment [7] came out at 15.8 µM; in experiment [2] it was 6.62 µM; in experiment [10] it was 6.19 µM; in [4], 4.55 µM; in experiment [5], 8.44 µM; in experiment [9], 3.3 µM.

`N=C1C(=N)c2ccccc2-c2ccccc21.[Cl-].[Ru+2].c1ccc(-c2ccccn2)nc1.c1ccc(-c2ccccn2)nc1`: the TGI in experiment [1], in experiment [2], in [3], in experiment [4], in experiment [5] and in experiment [6] was > 100 µM each time.

Consider `COc1cc2c(c3c1c(=O)c1ccccc1n3C)C=CC1(CCCC1)O2`, for which the TGI turned out to be 53.9 µM in experiment [1]; 31.6 µM in [7]; 26.4 µM in [2]; 9.75 µM in experiment [10]; 37.8 µM in experiment [3]; 29.3 µM in experiment [8]. For the same compound, the TGI in experiment [4] is 33.5 µM; in experiment [5] it was 38.1 µM; in experiment [6] it was 28 µM.
